The text below walks through data of article PMC10987543 (Cell Death Discovery, 2024).

One data set deals with caspase-3. To be noted: cited from earlier work. An excerpt:
The factors that determine whether a peptide induces apoptosis or not are not fully known. […] Although the mechanism of how CKS1 treatment affects the mitochondria remains unanswered, the malfunctioning of mitochondria caused by CKS1 may be the ...

Data set [1] relates to 4T1 cells. As to the kind of experiment: LDH release assay (CyQUANT). As to conditions: N = 3; for effect of inhibitor pretreatment on CKS1-induced release of LDH: 30 min pre-treatment (50 µM Z-VAD, 50 µM Nec-1s, 1 µM Fer-1), then 100 µM CKS1 6 hours; for release of LDH (oncolytic activity): 100 µM of the indicated peptides for 6 h, normalized to lysis buffer. The class given is cell-based, murine. On the technique in general: Release of lactate dehydrogenase indicates damage to the cell membrane.
Experimental: Ten thousand cells were seeded in a 96-well plate and incubated overnight. The cells were washed once, and the medium was replaced with serum-free media. Cells were treated with CKS1 for the indicated time and concentration. CyQUANT LDH cytotoxicity assay (Thermo Fisher Scientific) was used following the manufacturer’s instructions to measure the release of LDH. LDH release was normalized to the amount of LDH released from cells treated with lysis buffer.

For data set [2], the system named is 4T1 cells. As to the kind of experiment: Calcein-AM live cell imaging of cytosol release. The class given is cell-based, murine. As to conditions: 4T1 cells, 50 µM Z-VAD 30 minutes, then 100 µM CKS1. On the procedure:
Fluorescence labeling of cells was performed by seeding 5.0 × 10^4 4T1 cells in a 35 mm dish on a collagen-coated No. 1.5 coverslip with a 14 mm glass diameter (MatTek, Ashland, MA). After overnight incubation, the cells were washed once with serum-free media and replaced with fresh serum-free media. For cell cytosol labeling, Calcein-AM (Thermo Fisher Scientific, C1430) was added at a final concentration of 5 µg/mL and incubated for 10 min. For mitochondrial membrane labeling, JC-1 (Thermo Fisher Scientific, T3168) was added at a final concentration of 10 µg/mL and incubated for 10 min. To monitor the activity of caspases, CellEvent Caspase-3/7 Red detection reagents (Thermo Fisher Scientific, C10423) were used following the manufacturer’s instructions. For nuclear staining, Hoechst 33342 (Cell Signaling Technology, #4082) was added at a final concentration of 5 µg/mL and incubated for 10 min.
Cells were imaged on either a Zeiss LSM 700 or a 3i spinning disk confocal microscope. Samples were imaged with optimized microscope settings. Z-stack, time-lapse, or multi-channel acquisition settings were adjusted based on the experimental requirements. Images were then acquired with the appropriate excitation and emission wavelengths for each fluorophore.
Image processing was performed using Fiji software. For each image/video, the brightness and the contrast were adjusted. The time stamp and the scale bar were added. For quantification, CellProfiler was used. After cell segmentation based on the nucleus, the intensity of the signal of interest was quantified for each cell. Based on the intensity, each cells were labeled as positive or negative and the fraction of positive cells was calculated.

The nature of a further data set: Solubility in water. As to conditions: data not shown.

Peptide text beside a SMILES is read from it. * marks the point of attachment. Cbz = O=C(OCc1ccccc1)*; CH2F = FC*

Consider LTX-315, for which the caspase-3 activity result with caspase-3 was “failed to stimulate caspase-3 activity”.

As for `CN1C(=O)NC(Cc2c[nH]c3c(Cl)cccc23)C1=O` (stereo not shown) [Nec-1s, necrostatin-1 stable, reference compound], in the data set with 4T1 cells [1], the “effect of inhibitor pretreatment on CKS1-induced release of LDH” value (shortened to “effect of inhibitor pretreatment … of LDH”) is “did not inhibit the release of LDH”. With “NGRKACLNPASPIVKKIIPEKMLNS [NC2, mutant of CKS1, single proline inserted in the middle of the α-helix]”, in the data set with 4T1 cells [1], the “release of LDH (oncolytic activity)” value is “did not show oncolytic activity”.

Turning to “NGRKACLNPASP [loop region of CKS1, peptide that contains the N-terminal loop region of CKS1]”, the “release of LDH (oncolytic activity)” value in the data set with 4T1 cells [1] is “did not”.

As for “NGRKACLNPASPIVEEIIEEMLNS [NC1, mutant of CKS1, three lysines replaced with glutamic acids, anionic]”, the “release of LDH (oncolytic activity)” value with 4T1 cells [1] is “did not show oncolytic activity”. On to `CCOC(=O)c1ccc(NC2CCCCC2)c(N)c1` [Fer-1, ferrostatin-1, reference compound], for which, in the data set on 4T1 cells [1], the “effect of inhibitor pretreatment … of LDH” value is reported as “did not inhibit the release of LDH”. With `COC(=O)C[C@H](NC(=O)[C@H](C)NC(=O)[C@@H](NC(=O)OCc1ccccc1)C(C)C)C(=O)CF` [Z-VAD, reference compound] (Cbz-Val-Ala-Asp(OMe)-CH2F), the “effect of inhibitor pretreatment … of LDH” value in the data set on 4T1 cells [1] was “did not inhibit the release of LDH”. For the same molecule, the “effect of inhibitor pretreatment on CKS1-induced release of calcein” value in the data set with 4T1 cells [2] is recorded as “did not inhibit nor slow down the release of calcein”.

Consider IVKKIIEKMLNS [helical region of CKS1], for which the “release of LDH (oncolytic activity)” value in the data set with 4T1 cells [1] was “induced LDH release”. In addition, the solubility in water entry in “Solubility in water” is recorded as “poorly soluble in water”.
